Experimental data taken from patent EP0387527A1, “Process for the fermentative production of L-lysine” (Degussa Aktiengesellschaft, priority 1989, dated 1990).
Read-outs that look alike come from different tables or passages of the source.

Legend:
Type in all cases: biochemical
[1] = target: T1, Aspartat-Kinase (AK) aus C. glutamicum ATCC13032 (Wildtyp-Enzym) (Corynebacterium glutamicum, UniProt P26512); test: Aspartate kinase test (hydroxamate), inhibition by effector combinations, dialysed crude extract
T1 construct: Rohextrakten identisch gezogener; endogenous in cells; host or cells: C. glutamicum ATCC13032, dialysed crude extract
T1 sequence (P26512 1-421): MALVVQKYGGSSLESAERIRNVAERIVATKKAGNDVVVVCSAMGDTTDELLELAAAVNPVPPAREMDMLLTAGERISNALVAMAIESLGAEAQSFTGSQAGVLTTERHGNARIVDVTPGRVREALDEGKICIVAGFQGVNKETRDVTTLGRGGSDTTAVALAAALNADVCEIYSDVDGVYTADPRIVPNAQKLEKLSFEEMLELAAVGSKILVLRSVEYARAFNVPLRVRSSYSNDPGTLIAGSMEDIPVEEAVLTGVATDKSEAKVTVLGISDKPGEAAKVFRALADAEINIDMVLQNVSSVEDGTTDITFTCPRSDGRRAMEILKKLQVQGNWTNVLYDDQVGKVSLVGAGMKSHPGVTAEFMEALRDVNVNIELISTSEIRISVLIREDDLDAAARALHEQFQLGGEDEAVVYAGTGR
T1 sequence (P26512 1-172 isoform P26512-2): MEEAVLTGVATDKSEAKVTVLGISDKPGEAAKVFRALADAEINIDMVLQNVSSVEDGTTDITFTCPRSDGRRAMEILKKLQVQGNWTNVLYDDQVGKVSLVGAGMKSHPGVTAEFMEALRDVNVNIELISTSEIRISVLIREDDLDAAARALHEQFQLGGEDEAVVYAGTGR
Description: (§1) Die Stämme ATCC13032 und DM58-1 wurden unter direkt vergleichbaren Bedingungen in Standard I Bouillon (Merck Art. Nr. 7882) mit zusätzlichen 4 g/l Glucose und 1 mM MgCl₂ bei 30 °C und 150 rpm bis zum Erreichen der früh stationären Phase kultiviert und durch Zentrifugation vom Kulturmedium getrennt. Man wäscht 3 Mal mit 100 mM Tris/HCl (pH 7,5); 1 mM DTT und suspendiert die Feuchtzellmasse in einem Volumenteil des gleiche Puffers.
(§2) Die so suspendierten Zellen wurden in einer Kugelmühle (B. Braun Melsungen - MSK-Homogenisator, IMA-Disintegrator S) durch Verrühren mit einer geeigneten Menge an Glasperlen aufgeschlossen. Das Zellhomogenat wurde mittels Glasfilternutsche von den Glasperlen getrennt und 30 Minuten bei 30000 x g klarzentrifugiert.
(§3) Nach 15stündiger Dialyse in Enzym-stabilisierendem Puffer wurden die Enzymaktivitäten in folgenden Testgemischen bestimmt:
(§4) Aspartat-Kinase Test: 100 mM Tris/HCl (pH 7,5), 1 mM DTT, 400 mM (NH₄)₂SO₄, 20 mM MgCl₂, 400 mM NH₂OH·HCl, 300 mM L-Aspartat, 40 mM ATP und verschiedene Mengen Enzympräparation. Durch Zugabe von 750 µl einer Lösung aus 10 % Fe Cl₃ 6H₂O; 3,3 % TCA; 0,7 N HCl zu 500 µl des Enzymtestgemisches wird die Enzymreaktion nach 30 minütiger Inkubation bei 37 °C gestoppt. Aus der mittels Eichkurvenverfahren photometrisch (ΔE540 nm) bestimmten Aspartyl-beta-Hydroxamat Konzentration wird die in µMol/mg·min (U/mg) angegebenen Enzymaktivität kalkuliert. Die zugehörigen Proteinkonzentrationen wurden nach der Methode von Lowry et al. (Lowry et al. J. Biol. Chem. 193, 265 (1951)) oder Bradford (Bradford Anal. Biochem. 72, 248 (1976)) durchgeführt. Der Aspartyl-β-semialdehyd Dehydrogenase Test enthält 120 mM Diethanolamin (pH 9,0); 40 mM Na AsO₄; 1 mM NADP⁺; 5 mM L-Threonin; 1,3 mM Aspartyl-beta-semialdehyd und verschiedene Mengen Enzympräparation in einem Gesamtvolumen von 1 ml. Die in µMol/mg·min (U/mg) angegebene Aktivitat wird über die photometrisch […] bestimmte NADPH Synthesegeschwindigkeit berechnet.
(§5) Tabelle 1 zeigt, das die bereits von K. Nakayama et al. (K. Nakayama et al. Agr. Biol. Chem. 30, 611 (1966)) angedeutete und von S.N. Kara-Murza et al. (S.N. Kara-Murza Prikladnaya Biokhimiya; Mikrobiologia 14, 345 (1978)) genauer untersuchte Hemmbarkeit des C. glutamicum Wildtyp-Enzyms durch uns reproduziert werden konnte. Dem gegen-übergestellt ist der deutlich differente Charakter des Enzyms der AEC resistenten Mutante DM58-1, deren Aspartat-Kinase nicht mehr konzertiert durch L-Lysin + L-Threonin hemmbar ist. Durch die am Enzym aus ATCC13032 Lysin-analog wirkenden Substanzen S-Aminoethyl-D,L-Cystein (AEC) wird das Enzym der Mutanten ebenfalls nur noch gering beeinflußt. Tabelle 1

[2] = target: Aspartat-Kinase (AK) aus C. glutamicum DM58-1 (AEC resistente Mutante von ATCC13032) (Corynebacterium glutamicum, UniProt P26512); test: as above
Description: as §1, §2, §3, §4, §5

[3] = target: Aspartat-Kinase (AK), C. glutamicum ATCC13032 (pCS2) (Corynebacterium glutamicum, UniProt P26512); test: Aspartate kinase test, residual activity with effector combinations
Description: as §1, §2, §3, §4
(§6) Aspartat-Kinase-Aktivität wurde in Stamm ATCC13032/pCS2, als positive Kontrolle in Stamm DM58-1 und als negative Kontrolle in Stamm ATCC13032 gemessen. Die Stämme wurden in Standard I Bouillon, das mit 4 g/l Glucose, 10 µg/ml Kanamycin und 1 mM MgCl₂ supplementiert war, kultiviert. Kulturbedingungen, Zellernte, Zellaufschluß und Bestimmung der Aspartat-Kinase wurden, wie unter 1.2 beschrieben, durchgeführt. Die Effektoren L-Lys, L-Thr und AEC werden jeweils als Stammlösungen in 100 mM Tris/HCl Puffer mit einem pH von 7,5 zugegeben.
(§7) Die Aspartat-Kinase-Aktivität und die Hemmbarkeit der Enzymaktivität durch Mischungen von Lysin bzw. AEC und Threonin wurde in den konstruierten Klonen bestimmt. Anzucht, Aufschluß und Aktivitätsbestimmung wurden, wie oben beschrieben, durchgeführt. Außerdem wurde die Fahigkeit der verschiedenen Klone untersucht, L-Lysin auszuscheiden. Hierfür wurde ein Agarplatten-Diffusionstest mit einem L-Lysin-auxotrophen Indikationsstamm von C. glutamicum verwendet. Aus Tabelle 4 ist zu entnehmen, daß sämtliche AEC resistenten Stämme eine partiell deregulierte Aspartat-Kinase-Aktivität besitzen und in der Lage sind, L-Lysin auszuscheiden. Tabelle 3

[4] = target: Aspartat-Kinase (AK), C. glutamicum ATCC13032 (pCS23) (Corynebacterium glutamicum, UniProt P26512); test: as above
Description: as §1, §2, §3, §4, §6, §7

[5] = target: Aspartat-Kinase (AK), C. glutamicum ATCC13032 (pCS233) (Corynebacterium glutamicum, UniProt P26512); test: as above
Description: as §1, §2, §3, §4, §6, §7

[6] = target: Aspartat-Kinase (AK), C. glutamicum ATCC13032 (pCS24) (Corynebacterium glutamicum, UniProt P26512); test: as above
Description: as §1, §2, §3, §4, §6, §7

[7] = target: Aspartat-Kinase (AK), C. glutamicum ATCC13032 (pCS26) (Corynebacterium glutamicum, UniProt P26512); test: as above
Description: as §1, §2, §3, §4, §6, §7

[8] = target: Aspartat-Kinase (AK), C. glutamicum DM58-1 (pZ1) (Corynebacterium glutamicum, UniProt P26512); test: as above
Description: as §1, §2, §3, §4, §6, §7

[9] = target: Aspartat-Kinase (AK), C. glutamicum ATCC13032 (pCS21) (Corynebacterium glutamicum, UniProt P26512); test: as above
Description: as §1, §2, §3, §4, §6, §7

[10] = target: Aspartat-Kinase (AK), C. glutamicum ATCC13032 pCS22 (Corynebacterium glutamicum, UniProt P26512); test: as above
Description: as §1, §2, §3, §4, §6, §7

NCCSCC(N)C(=O)O (racemic) [AEC, S-(Aminoethyl)-D,L-Cystein]
inhibition at 10000 µM ([1]; 10 mM AEC + 1 mM L-Thr, read-out: AK-Hemmung): 12%
inhibition at 10000 µM ([1]; 10 mM AEC + 10 mM L-Thr, read-out: AK-Hemmung): 41%
inhibition at 100000 µM ([1]; 100 mM AEC + 10 mM L-Thr, read-out: AK-Hemmung): 95%
AK-Hemmung ([2]; 10 mM AEC + 1 mM L-Thr): 0%
AK-Hemmung ([2]; 10 mM AEC + 10 mM L-Thr): 0%
AK-Hemmung ([2]; 100 mM AEC + 10 mM L-Thr): 7%
AK Restaktivität (%) in Anwesenheit von 100mM AEC 10mM Thr ([3]; 100mM AEC + 10mM Thr): 56%
AK Restaktivität (%) in Anwesenheit von 100mM AEC 10mM Thr ([4]; 100mM AEC + 10mM Thr): 56%
AK Restaktivität (%) in Anwesenheit von 100mM AEC 10mM Thr ([5]; 100mM AEC + 10mM Thr): 57%
AK Restaktivität (%) in Anwesenheit von 100mM AEC 10mM Thr ([6]; 100mM AEC + 10mM Thr): 62%
AK Restaktivität (%) in Anwesenheit von 100mM AEC 10mM Thr ([7]; 100mM AEC + 10mM Thr): 60%
AK Restaktivität (%) in Anwesenheit von 100mM AEC 10mM Thr ([8]; 100mM AEC + 10mM Thr): 93%

NCCCC[C@H](N)C(=O)O [L-Lys, L-Lysin]
inhibition at 10000 µM ([1]; read-out: AK-Hemmung, 10 mM L-Lys + 1 mM (second inhibitor not named, L-Thr)): 89%
inhibition at 10000 µM ([1]; read-out: AK-Hemmung, 10 mM L-Lys + 10 mM L-Thr): 95%
inhibition at 100000 µM ([1]; read-out: AK-Hemmung, 100 mM L-Lys + 10 mM L-Thr): 99%
AK-Hemmung ([2]; 10 mM L-Lys + 1 mM (second inhibitor not named, L-Thr)): 12%
AK-Hemmung ([2]; 10 mM L-Lys + 10 mM L-Thr): 2%
AK-Hemmung ([2]; 100 mM L-Lys + 10 mM L-Thr): 21%
AK Restaktivität (%) in Anwesenheit von 10mM Lys 1mM Thr ([3]; 10mM Lys + 1mM Thr): 55%
AK Restaktivität (%) in Anwesenheit von 10mM Lys 10mM Thr ([3]; 10mM Lys + 10mM Thr): 55%
AK Restaktivität (%) in Anwesenheit von 100mM Lys 10mM Thr ([3]; 100mM Lys + 10mM Thr): 28%
AK Restaktivität (%) in Anwesenheit von 10mM Lys 1mM Thr ([9]; 10mM Lys + 1mM Thr): 46%
AK Restaktivität (%) in Anwesenheit von 10mM Lys 10mM Thr ([9]; 10mM Lys + 10mM Thr): 50%
AK Restaktivität (%) in Anwesenheit von 100mM Lys 10mM Thr ([9]; 100mM Lys + 10mM Thr): 24%
AK Restaktivität (%) in Anwesenheit von 10mM Lys 1mM Thr ([4]; 10mM Lys + 1mM Thr): 51%
AK Restaktivität (%) in Anwesenheit von 10mM Lys 10mM Thr ([4]; 10mM Lys + 10mM Thr): 57%
AK Restaktivität (%) in Anwesenheit von 100mM Lys 10mM Thr ([4]; 100mM Lys + 10mM Thr): 30%
AK Restaktivität (%) in Anwesenheit von 10mM Lys 1mM Thr ([5]; 10mM Lys + 1mM Thr): 56%
AK Restaktivität (%) in Anwesenheit von 10mM Lys 10mM Thr ([5]; 10mM Lys + 10mM Thr): 62%
AK Restaktivität (%) in Anwesenheit von 100mM Lys 10mM Thr ([5]; 100mM Lys + 10mM Thr): 36%
AK Restaktivität (%) in Anwesenheit von 10mM Lys 1mM Thr ([6]; 10mM Lys + 1mM Thr): 65%
AK Restaktivität (%) in Anwesenheit von 10mM Lys 10mM Thr ([6]; 10mM Lys + 10mM Thr): 65%
AK Restaktivität (%) in Anwesenheit von 100mM Lys 10mM Thr ([6]; 100mM Lys + 10mM Thr): 40%
AK Restaktivität (%) in Anwesenheit von 10mM Lys 1mM Thr ([7]; 10mM Lys + 1mM Thr): 64%
AK Restaktivität (%) in Anwesenheit von 10mM Lys 10mM Thr ([7]; 10mM Lys + 10mM Thr): 63%
AK Restaktivität (%) in Anwesenheit von 100mM Lys 10mM Thr ([7]; 100mM Lys + 10mM Thr): 39%
AK Restaktivität (%) in Anwesenheit von 10mM Lys 1mM Thr ([10]; 10mM Lys + 1mM Thr): 40%
AK Restaktivität (%) in Anwesenheit von 10mM Lys 10mM Thr ([10]; 10mM Lys + 10mM Thr): 41%
AK Restaktivität (%) in Anwesenheit von 100mM Lys 10mM Thr ([10]; 100mM Lys + 10mM Thr): 22%
AK Restaktivität (%) in Anwesenheit von 10mM Lys 1mM Thr ([8]; 10mM Lys + 1mM Thr): 83%
AK Restaktivität (%) in Anwesenheit von 10mM Lys 10mM Thr ([8]; 10mM Lys + 10mM Thr): 100%
AK Restaktivität (%) in Anwesenheit von 100mM Lys 10mM Thr ([8]; 100mM Lys + 10mM Thr): 79%
